Data on one sequence can be found in patent publication US9303069B2, “Peptides for treating cancer” (University of Mississippi Medical Center, priority 2014, dated 2016).

The subject of experiment [1] is AKT, p-AKT, p-FOXO and FOXO3a. Nature of the experiment: Signalling proteins in MDA-MB-231 and MDA-MB-468 cells (Western). It is filed as cell-based, human. From the text: This was completely in line with decreased MDM2 and Skp2 (the ubiquitin ligases responsible for p-FOXO degradation) expression in BRCA1-IRIS silenced and BRCA1-IRIS and AKT inactivated cells (FIG. 87).

In experiment [2] the test system is HOSE, HOSE/IRIS, SKOV3, OVCAR3, OVCAR420 and OV-90 cells. In words: Survival of ovarian cell lines after siRNA transfection followed by IRIS peptide. The experiment is classed as cell-based, human. The following applies: then increasing concentrations of IRIS peptide 24 hours. The procedure: To establish the specificity of this peptide further, it was assumed that it would not affect cells already depleted from BRCA1-IRIS. To do that HOSE, HOSE/IRIS, SKOV3, OVCAR3, OVAC420 and OV-90 cells were first transfected with luciferase (as control, hereafter siLuc) or BRCA1-IRIS (hereafter siIRIS) specific siRNAs for 48 hours before they were exposed to increasing concentrations of IRIS peptide for another 24 hours.
Cell viability measurement. Cell viability under different experimental conditions was determined using the MTS assay or cell. […] Cell viability (%) was expressed as a ratio to control cells×100. Growth inhibition was also determined by manually counting cells in five different microscopic fields. Change in cell numbers (fold) was expressed as a ratio to control cells×100. […]
Transfections of siRNA. siRNAs for human ErbB2 and TrkB were purchased from Ambion and Santa Cruz Biotechnology, USA. […] Cell viability was evaluated by MTS or by manual counting after 72 hours of siRNA exposure alone or in combination with cisplatin exposure (for an additional 24 hours).

The next experiment deals with MDA-MB-468 tumors. Nature of the experiment: In vivo efficacy on established MDA-MB-468 tumors. Also on record: species or system mice. To be noted: day 12; IRIS peptide 10 mg/kg i.t.; combination at half the concentrations. The procedure:
Nude 6-8 weeks female mice were injected with 2×10^6 of MDA-MB-468 cells in the 2nd left and 4th right mammary fat pads. When all tumors reached ˜0.1 cm^3 in volume, mice were divided into four groups, one received vehicles (i.e. DMSO injected intraperitoneally [i.p.] and scrambled peptide injected directly into tumors [i.t.]), another received paclitaxel (10 mg/kg, i.p.), the third received IRIS peptide at (10 mg/kg, i.t.), and the last received paclitaxel and IRIS peptide at half the concentrations, injected as above. Drugs were delivered every third day for total of four injections.
In Vivo efficacy of BRCA1-IRIS-inhibitory peptide. Six to eight week old female athymic SCID mice were injected in the second right and the fourth left mammary gland with 2.5×10^6 of MDAMB468 cells. Tumor growth was followed daily until tumors reached 100 mm^3. At this time mice were randomly grouped into four different groups that were injected: a) with DMSO (i.p.) and scrambled peptide (10 mg/kg) intra-tumoral (i.t.), b) injected with IRIS peptide (10 mg/kg, i.t.), c) injected with paclitaxel (10 mg/kg, i.p.), d) injected with IRIS peptide (5 mg/kg, i.t.), and paclitaxel (5 mg/kg, i.p.). […] Change in tumor volume was measured to monitor the efficacy of the treatments using caliper and is represented as percentage of volume at day 0 of treatment. […]

In the next experiment the test system is HOSE cells. The experiment is classed as cell-based, human. The following applies: 48 h. The procedure:
(§1) Thus, a peptide (hereafter IRIS peptide) composed of a cell/nucleus penetrating signal (FIG. 26) fused to BRCA1-IRIS intron 11 (FIG. 26) was synthesized. Equal numbers of HOSE, HOSE/IRIS, SKOV3, OVCAR3, OVCAR420 and OV-90 cells were grown in the presence of increasing concentrations of IRIS peptide for 48 hours.
(§2) Cell viability measurement. Cell viability under different experimental conditions was determined using the MTS assay […]. Briefly, SKOV3, OVACAR3, HOSE and HOSE/IRIS cells (2.5×10^4 cells per well) were seeded in 96 well plates and incubated overnight at 37° C. in 10% humidified CO2 atmosphere in varying concentrations of IRIS peptide, or inhibitors of ErbB2 (CP-724714), EGFR (Erlotinib), TrkB (K252a), JNK (SP600125), p38 (SB203580), ERK (PD98059) and PI3′K/AKT (LY294002) inhibitors for 24 hours at 37° C. Cell Titer 96® Aqueous (Promega, Madison, Wis., USA) was used to measure viability following manufactures instructions. Cell viability (%) was expressed as a ratio to control cells×100. Growth inhibition was also determined by manually counting cells in five different microscopic fields. Change in cell numbers (fold) was expressed as a ratio to control cells×100. All experiments were done in at least triplicates, three different times. * is p≦0.05, ** is p≦0.001 and *** is p≦0.0001.

The next experiment has as its system HOSE/IRIS cells. The experiment is classed as cell-based, human. To be noted: 48 h. The procedure: as §1, §2
The next experiment concerns OVCAR420 cells. The experiment is classed as cell-based, human. The following applies: 48 h. The procedure:
as §1, §2

The next experiment concerns OV-90 cells. The experiment is classed as cell-based, human. To be noted: 48 h. The procedure:
as §1, §2

The next experiment relates to OVCAR3 cells. It is filed as cell-based, human. To be noted: 48 h. The procedure:
as §1, §2

For another experiment, the system named is HME/IRIS cells. To be noted: 48 h.

Ends that are not written are not given here.

Method for HME/IRIS cells: All cell lines were exposed to increasing concentrations of paclitaxel and BRCA1-IRIS expression, and cells' viability was then measured.
Cell viability measurement. Cell viability under different experimental conditions was determined using the MTS assay. Briefly, cells (2.5×10^4 cells per well) were seeded in 96-well plates and incubated overnight at 37° C. in 10% humidified CO2 atmosphere. The next day they were incubated with varying concentration of peptide, or inhibitors for 24 hours at 37° C. Cell viability was determined using cell Titer 96® Aqueous (Promega, Madison, Wis., USA) following manufacturer's instructions. Cell viability (%) was expressed as a ratio of treated cells to control cells×100. […] Each experiment was done in triplicate, repeated three separate times.

Turning to “RRIRPRPPRLPRPRPRPLPFPRPGIGTRFLCLPQSIYRSELNVYAFGEHILQISKYS [IRIS peptide]”, the “total and activated AKT (p-AKT) levels” value in experiment [1] (5 μM IRIS peptide or 10 μM LY294002, 24 hours) is “decreased the levels of total and activated AKT (p-AKT) in both cell lines”. In addition, in experiment [1] (5 μM IRIS peptide, 10 μM LY294002 or 10 μM PD98059, 24 hours), the “p-FOXO and FOXO3a levels” value was “decreased p-FOXO level and increased the levels of FOXO3a in both cell lines”. The “effect of IRIS peptide on survival of BRCA1-IRIS silenced cells” value in experiment [2] (siIRIS 48 hours) is “not affected by the peptide at any of the concentrations tested”. Further, the “effect of IRIS peptide on survival of siLuc-transfected cells” value in experiment [2] (siLuc 48 hours) is “gradual decrease in the survival of all cell lines”. Moreover, the “tumor size as % of original size (at day 0)” value with MDA-MB-468 tumors was roughly 75%. Further, the half-inhibitory concentration (IC50) is roughly 1 µM with HOSE cells; roughly 10 µM in the experiment on HOSE/IRIS cells; roughly 1 µM in the experiment with OVCAR420 cells; roughly 5 µM in the experiment with OV-90 cells; roughly 10 µM in the experiment with OVCAR3 cells; roughly 5 µM in the experiment on HME/IRIS cells.
